Results taken from US11549123B2, “Plant EPSP synthases and methods of use” (PIONEER HI-BRED INTERNATIONAL, INC., priority 2015, dated 2023).
pKi: −log10 of the molar value.

Legend:
[1] = test system: EPSPS with TIPS mutations (T103I and P107S, as in GA21); conditions: Funke et al. 2009; Yu et al. 2015; cited from earlier work
[2] = biological target: T1, Zea mays EPSPS variant Zm-A189T (Zea mays, UniProt O24566, A188T); assay: Rapid two-rate method for (kcat/KM)*KI, Zm-A189T; type: biochemical; conditions: [E] 0.07 uM, [Gly] 1000 uM
T1 sequence (O24566 with tags, fused parts or gaps A188T): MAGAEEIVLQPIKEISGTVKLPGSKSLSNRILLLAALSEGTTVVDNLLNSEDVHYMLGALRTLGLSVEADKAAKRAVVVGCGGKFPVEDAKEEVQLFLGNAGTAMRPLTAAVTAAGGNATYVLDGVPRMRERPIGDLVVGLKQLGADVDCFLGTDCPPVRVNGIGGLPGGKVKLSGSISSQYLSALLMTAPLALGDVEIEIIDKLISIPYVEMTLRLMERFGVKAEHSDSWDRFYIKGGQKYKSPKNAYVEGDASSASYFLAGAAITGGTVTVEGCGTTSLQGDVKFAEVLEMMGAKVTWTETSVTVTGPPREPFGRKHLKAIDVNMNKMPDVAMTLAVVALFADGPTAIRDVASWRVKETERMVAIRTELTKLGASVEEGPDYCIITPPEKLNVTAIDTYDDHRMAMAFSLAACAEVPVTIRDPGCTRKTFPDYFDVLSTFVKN
Excerpt: (§1) There are several practical considerations for accurately estimating (kcat/KM)*KI with the rapid method. […] 2) The inhibitor concentration must be adjusted so as to obtain a degree of inhibition that minimally amplifies the error in the term v0-vi in Equation 3. If inhibition is too little, v0-vi will be small, and the error in the multiplier vi×v0/(v0-vi) will be large. […] 3) Substrate concentration should be set at the approximate KM of the parental variant(s), subject to the sensitivity of the assay. High substrate concentration obscures sensitivity to the inhibitor and reduces stringency for capturing improvements in KM. Depending on the necessity for speed, there exists opportunity for customizing enzyme and inhibitor concentrations. […] The rapid method was repeated for those and obtained data that correlated better with data obtained by substrate saturation analysis. For screening purposes however, that correlation step is not necessary. Conditions can be set so that variants with a pre-determined minimal fitness level are accurately quantified.
(§2) In Table 15, parameters above the heavy line for the rapid method were obtained under standard conditions. For variants shown below the heavy line, the rapid analysis was repeated with enzyme or glyphosate concentrations adjusted as needed to generate sufficient signal within the limits for linear initial rates.

[3] = biological target: T2, Zea mays EPSPS variant Zm-H6 (868-H6) with D196V (H6-D196V) (Zea mays, UniProt O24566, A1R/A3W/A415G/A71Q/D195V/D401G/E301S/E390G/G101A/I207L/K83R/L97C/T278A/T360S/T440Q/V437R); assay: Rapid two-rate method for (kcat/KM)*KI, H6-D196V; type: biochemical; conditions: [E] 0.07 uM, [Gly] 1000 uM
T2 construct: shuffled variant 868-H6 plus D196V; E. coli BL21(DE3), Ni-NTA purified
T2 sequence (O24566 with tags, fused parts or gaps A1R/A3W/A71Q/K83R/L97C/G101A/D195V/I207L/T278A/E301S/T360S/E390G/D401G/A415G/V437R/T440Q): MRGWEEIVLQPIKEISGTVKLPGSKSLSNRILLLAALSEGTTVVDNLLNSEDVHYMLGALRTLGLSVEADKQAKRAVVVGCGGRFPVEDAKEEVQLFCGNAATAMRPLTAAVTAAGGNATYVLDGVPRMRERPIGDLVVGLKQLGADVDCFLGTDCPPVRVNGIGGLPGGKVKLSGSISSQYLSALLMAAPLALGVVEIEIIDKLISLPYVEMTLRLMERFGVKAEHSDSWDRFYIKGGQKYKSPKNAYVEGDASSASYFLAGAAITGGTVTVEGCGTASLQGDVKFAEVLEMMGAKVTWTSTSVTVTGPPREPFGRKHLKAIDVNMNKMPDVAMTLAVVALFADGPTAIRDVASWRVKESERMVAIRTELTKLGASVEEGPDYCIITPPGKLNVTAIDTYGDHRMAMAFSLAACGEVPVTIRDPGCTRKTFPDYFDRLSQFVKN
Excerpt: as §1, §2

[4] = biological target: Zea mays EPSPS variant 771-C2 (A4W, H54M, L98C, G102A, K173R, I208L, K243E, E302S, T361S, E391P, D402G, A416G, V438R, S440R, T441Q, F442V), SEQ ID NO:4 (Zea mays, UniProt O24566, A3W/A415G/D401G/E301S/E390P/F441V/G101A/H53M/I207L/K172R/K242E/L97C/S439R/T360S/T440Q/V437R); assay: EPSPS substrate saturation kinetics, 771-C2; type: biochemical
Procedure: EPSPS activity was determined by quantifying the phosphate generated from the EPSPS reaction. Release of inorganic phosphate was coupled to reaction with 2-amino-6-mercapto-7-methylpurine ribonucleoside, catalyzed by purine-nucleoside phosphorylase (M R Webb, Proc. Natl. Acad. Sci. 89:4884-4887, 1992). The absorbance change that occurs was monitored at 360 nm, where the extinction is 11,200 M^−1 cm^−1, with a Spectramax plate reader (Molecular Devices). To determine kinetic parameters, the varied substrate was present at seven concentrations (the eighth being the blank, containing no substrate) ranging from 4 to 400 uM and the unvaried substrate present at saturation. […] Reactions were monitored with a Spectramax plate reader. […] KI was then calculated from the following form of the Michaelis-Menten equation for competitive inhibition: KI=KM[I]/(KM app−KM) KM approximates the dissociation constant of the enzyme-substrate complex while kcat is the rate of conversion of substrate to product when the substrate concentration is saturating. kcat/KM is a widely accepted parameter for catalytic efficiency when substrate concentration is low (˜KM). […] The parameter kcat/KM×KI is used to quantify both catalytic efficiency and insensitivity and thus the overall fitness of the enzyme. […]

| Structure (SMILES) | kcat relative to native kcat [1] | (kcat/KM)*KI [2] | (kcat/KM)*KI [3] | pKi [4] | (kcat/KM)*KI ([4]; PEP as substrate, glyphosate as inhibitor) |
| --- | --- | --- | --- | --- | --- |
| C=C(OP(=O)(O)O)C(=O)O [PEP, phosphoenolpyruvate] | ~5% | – | – | – | – |
| O=C(O)CNCP(=O)(O)O [glyphosate, N-phosphonomethylglycine] | – | 431 | 1704 | 3.46 | 5800 |
